Experimental data published in patent publication US7939554B2, “Protein phosphatase inhibitors” (The Cleveland Clinic Foundation, priority 2006, dated 2011).

Legend:
B16 melanoma tumors = assay: B16 melanoma tumor growth in athymic nude mice; type: in vivo, mouse; conditions: 3 mg/kg/day, oral
Method: To assess L5 anti-tumor activity, C57BL/6J mice or athymic nude mice (˜8-week old, female, Taconic Farms, Germantown, N.Y.) were inoculated (s.c.) at the flanks with B16 melanoma cells (4×10^4 cells/site). Four days post-inoculation, the mice were treated with PBS (Control) or L5 (˜3 mg/kg body weight/daily, Monday-Friday/week, oral gavage). Tumor volume (n=5) was measured during the study period and calculated using the formula for a prolate spheroid. Student's t test was used for assessing the significance of tumor volume differences among differential treatment groups. Mouse viability (daily) and body weights (weekly) were also recorded during the study period. Major internal organs of the mice were inspected visually upon their termination at the end of the experiment.

intracellular SHP-1 = target: T1, intracellular SHP-1 (Homo sapiens, UniProt P29350); assay: tyrosine phosphorylation of SHP-1 substrates in Jurkat cells (SDS-PAGE/Western blotting, densitometry); type: cell-based; conditions: for level capable of inhibiting intracellular SHP-1: Jurkat T cells
T1 construct: endogenous in cells; host or cells: Jurkat
T1 sequence (P29350 whole entry): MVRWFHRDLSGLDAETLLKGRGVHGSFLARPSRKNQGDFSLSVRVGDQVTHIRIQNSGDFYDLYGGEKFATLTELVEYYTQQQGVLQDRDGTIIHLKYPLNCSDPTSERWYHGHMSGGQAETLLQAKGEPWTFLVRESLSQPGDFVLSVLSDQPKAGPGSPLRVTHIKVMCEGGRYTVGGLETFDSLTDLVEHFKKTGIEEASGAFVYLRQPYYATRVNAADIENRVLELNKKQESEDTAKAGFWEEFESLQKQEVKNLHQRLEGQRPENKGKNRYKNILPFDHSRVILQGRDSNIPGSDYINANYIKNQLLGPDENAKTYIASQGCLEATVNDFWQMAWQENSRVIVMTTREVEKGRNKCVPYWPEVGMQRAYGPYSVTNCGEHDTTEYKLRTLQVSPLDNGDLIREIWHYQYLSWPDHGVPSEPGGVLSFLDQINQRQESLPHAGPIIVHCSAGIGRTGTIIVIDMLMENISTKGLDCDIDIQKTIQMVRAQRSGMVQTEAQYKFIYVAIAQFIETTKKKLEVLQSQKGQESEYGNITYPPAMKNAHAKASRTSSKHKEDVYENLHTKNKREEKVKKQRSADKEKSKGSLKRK
Method: (§1) Jurkat cells in culture medium (3×10^6 cells/ml, 1 ml/tube) were treated with agents for designated times at room temperature. After brief centrifuging in a microfuge (4,000 rpm, 2 min), the cell pellet was lysed on ice for 30 min in 1001 of cold lysis buffer (1% NP40, 50 mM Tris, pH 7.4, 150 mM NaCl, 20 mM NaF, 0.2 mM Na3VO4 and 1 mM Na3MO4) containing a cocktail of proteinase inhibitors (Sigma, 1 tablet/10 ml). The lysates were cleared by centrifuging (14,000 rpm, 10 min) in a microfuge at 4° C. to remove insoluble parts, mixed with equal volume of 2×SDS-PAGE sample buffer, boiled for 5 min and analyzed (˜3×10^5 cells/well) by SDS-PAGE/Western blotting. Relative intensities of phosphotyrosine bands were quantified through densitometry analysis.
as §1, with “100 μl” for “1001”, “blotting as described previously (23, 24).” for “blotting.”
as §1, with “100 μl” for “1001”, “blotting as described previously (17, 18).” for “blotting.”

SHP-2 = target: T2, SHP-2 (Homo sapiens, UniProt Q06124); assay: pERK1/2 levels in L5-treated Jurkat cells; type: cell-based; parameters: endogenous in cells; host or cells: Jurkat; conditions: not at lower doses (0.1 to 0.001 μg/ml)
T2 sequence (Q06124 1-593): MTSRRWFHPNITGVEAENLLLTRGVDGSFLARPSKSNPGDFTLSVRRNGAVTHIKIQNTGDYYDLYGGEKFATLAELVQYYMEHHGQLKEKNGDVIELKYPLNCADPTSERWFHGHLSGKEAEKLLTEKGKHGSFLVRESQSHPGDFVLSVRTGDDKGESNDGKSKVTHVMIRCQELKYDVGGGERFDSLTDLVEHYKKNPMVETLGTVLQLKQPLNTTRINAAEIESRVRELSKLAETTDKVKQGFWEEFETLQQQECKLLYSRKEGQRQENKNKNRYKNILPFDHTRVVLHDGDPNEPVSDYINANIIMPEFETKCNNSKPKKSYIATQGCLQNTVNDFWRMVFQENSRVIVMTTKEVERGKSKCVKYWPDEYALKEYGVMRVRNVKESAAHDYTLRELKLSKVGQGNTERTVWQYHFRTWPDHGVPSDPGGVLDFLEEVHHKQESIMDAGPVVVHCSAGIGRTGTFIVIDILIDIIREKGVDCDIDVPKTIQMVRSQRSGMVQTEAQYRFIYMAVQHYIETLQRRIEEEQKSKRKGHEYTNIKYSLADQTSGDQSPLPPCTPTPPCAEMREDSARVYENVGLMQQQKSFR
Method: as §1
To assess the effects of L5 on other phosphatases, pERK1/2 and pLck-pY505 in L5-treated Jurkat cells were quantified. SHP-2 is known to be a positive mediator of pERK1/2 whereas pLck-pY505 is dephosphorylated by PTPase CD45.

mouse splenocytes = assay: induction of IFNγ+ cells in mouse splenocytes in vitro (ELISPOT); type: cell-based
Method: The splenocytes were cultured in RPMI 1640 medium supplemented with 10% FCS in the absence or presence of designated agents for 16 hrs in flat-bottom 96-well plates coated with a monoclonal antibody specific for mouse IFNγ (mouse IFNγ ELISPOT Kit, R & D System). The plates were then processed for in situ detection of IFNγ+ cells by ELISA following the manufacturer's procedure. Scanning and counting of IFNγ+ cells in the plates were accomplished using an automatic ELISPOT reader with Immunospot2 software (Cellular Technology Ltd). Mouse splenocytes were also untreated or treated with agents for 16 hrs in culture dishes and then stained with appropriate isotype control antibodies or FICT-labeled anti-CD3 monoclonal antibody (BD) plus PE-labeled monoclonal antibody (BD) for intracellular IFNγ following established procedures. The stained samples were washed 3 times, re-suspended in 200 μl of 1% para-formaldehyde solution and analyzed (20,000 cells/sample) using a BD FACS Caliburs cytometer and WinList software.
The splenocytes were cultured in RPMI 1640 medium supplemented with 10% FCS in the absence or presence of designated agents for 16 hrs in flat-bottom 96-well plates coated with a monoclonal antibody specific for mouse IFNγ (mouse IFNγ ELISPOT Kit, R & D System). The plates were then processed for in situ detection of IFNγ+ cells by ELISA following the manufacturer's procedure. Scanning and counting of IFNγ+ cells in the plates were accomplished using an automatic ELISPOT reader with Immunospot2 software (Cellular Technology Ltd).

O=C1C=CC(=O)C(c2cc(Cl)ccc2Cl)=C1 [L5]
B16 tumor growth in T-cell-deficient mice (B16 melanoma tumors): not inhibited
pLck-pY394 induction (intracellular SHP-1; 0.01 μg/ml, 10 min): 2-3 fold
pSlp76 level (intracellular SHP-1; 0.01, 0.1, 1 or 3 μg/ml): obviously increased
pZap70 level (intracellular SHP-1; 0.01, 0.1, 1 or 3 μg/ml): obviously increased
pLck-pY394 induction (intracellular SHP-1; 0.1, 1 or 3 μg/ml, 10 min): > 4 folds
dose effective in inducing pLck-pY394 (lowest / only effective dose) (intracellular SHP-1; 10 min treatment): 0.01 μg/ml
level capable of inhibiting intracellular SHP-1 (intracellular SHP-1): 10 ng/mL
level capable of inhibiting intracellular SHP-1 (intracellular SHP-1; molar equivalent): ~40 nM
pLAT level (intracellular SHP-1; L5-treated Jurkat cells): induced
potency relative to SSG (intracellular SHP-1; by weight): approximately 1,000 fold
potency relative to SSG (intracellular SHP-1; in equal molar ratios): ~350 fold
pLck-pY394 induction versus untreated control (intracellular SHP-1; lead compounds, 10 min, densitometry, FIG. 2): ~10 fold
dose reducing pERK1/2 levels (SHP-2): 1 μg/ml
induction of IFNγ+ cells (mouse splenocytes; 0.001 μg/ml, 16 hrs): inactive
increase of IFNγ+ cells in splenocytes (mouse splenocytes; 1 μg/ml, 16 hrs): ~14 fold
increase of IFNγ+ cells in splenocytes (mouse splenocytes; 3 μg/ml, 16 hrs): ~26 fold
increase of IFNγ+ cells in splenocytes (mouse splenocytes; 10 μg/ml, 16 hrs): ~17 fold
increase of IFNγ+ cells in splenocytes (mouse splenocytes; 30 μg/ml, 16 hrs): ~10 fold
minimal effective dose for IFNγ+ cell induction (mouse splenocytes; FIG. 11): 10 ng/mL
induction of IFNγ+ cells (mouse splenocytes; low doses (0.01 to 1 μg/ml), same mouse, FIG. 16): 3-4 fold
effectiveness relative to SSG in inducing IFNγ+ cells (mouse splenocytes; maximal induction at a comparable dose, mouse splenocytes): ~58 fold
